According to PubChem BioAssay AID1963861 (Molecular Pharmacology Branch, DTP, NCI, 2024):
pIC50: −log10 of the molar value.

Test system: 885724-159-R-J1-PDC KRAS PDC multicell spheroid viability
Assay: Anticancer human tumor 885724-159-R-J1-PDC patient-derived pancreatic adenocarcinoma cell line growth inhibition [KRAS2]
Settings: for pIC50: curve of first compound; for viability, T/C: stronger effect = lower value; active = viability on the fitted dose curve at most 10% of control; inactive = the rest
Source text: Multicellular complex tumor spheroid response to RAS pathway inhibitors in combination with a targeted agents in patient-derived cell lines with oncogenic KRAS variants from multiple cancer types
A high-throughput screen of multi-cell type tumor spheroids was designed to identify active combinations of targeted small molecules and KRAS pathway inhibitors. Complex spheroids include a stromal component modeled by human endothelial cells (HUVEC) and fibroblasts modeled by human mesenchymal stem cells (MSCs). The concentration ranges selected for each drug and investigational agent were based upon clinically achievable concentrations if the clinical Cmax of the agent was known.
Compounds. The drugs and investigational agents: BI-3406 (NSC825286), BAY-293 (NSC824723), batoprotafib (TNO155; NSC825523), sotorasib (AMG 510; NSC818433), MRTX1257 (NSC819558), elimusertib (BAY 1895344; NSC800525), molibresib (GSK525762; NSC774829), temuterkib (LY3214996; NSC803410), venetoclax (NSC766270), alisertib (NSC759677), olaparib (NSC753686), talazoparib (NSC767125), erdafitinib (NSC781556), ipatasertib (NSC767898), cabozantinib (NSC761068), nintedanib (NSC756659), abemaciclib (NSC768073), docetaxel (NSC628503), trametinib (NSC758246), and sapanisertib (NSC764658) were obtained from the National Cancer Institute (NCI) Developmental Therapeutics Program Chemical Repository. The FDA-approved anticancer drug set is available from the Developmental Therapeutics Program. […] The stock solutions were prepared in dimethyl sulfoxide (DMSO, Sigma-Aldrich, St. Louis, MO, cat. D2650) at 800-fold the tested concentration and stored at -70 degrees C prior to their use. All drugs and investigational agents were tested over a range starting from a high concentration at or near the clinical Cmax and decreasing in half-log increments. If the clinical Cmax for an agent had not been determined, the highest concentration tested was 10 microM.
Cell Culture. All cells were maintained in an incubator at 37 degrees C and 5% CO2 with 95% humidity. The PDC lines were cultured according to standard operating procedures established by the NCI PDMR (https://pdmr.cancer.gov/sops/default.htm). Briefly, all PDCs were thawed and cultured in Matrigel-coated flasks prepared with a working solution of 1X Ham's F-12 nutrient mix, without supplementation (Invitrogen, Waltham, MA, cat. 11765054), 100 U/mL penicillin-streptomycin (Invitrogen, cat. 15140122), and 2.5% Matrigel (Corning Inc., Corning, NY, cat. 354248) for the first three passages. All PDCs were cultured in complete DMEM/F-12 media containing advanced DMEM/F-12 (Invitrogen, cat. 12634028), 4.9% defined fetal bovine serum, heat inactivated (HyClone Laboratories Inc., Logan, UT, cat. SH30070.03HI), 389 ng/mL hydrocortisone (Sigma-Aldrich, cat. H4001), 9.7 ng/mL human EGF recombinant protein (Invitrogen, cat. PHG0313), 23.4 microg/mL adenine (Sigma-Aldrich, cat. A2786), 97.3 U/mL penicillin-streptomycin (Invitrogen, cat. 15140122), 1.9 mM L-glutamine (Invitrogen, cat. 25030081), and 9.7 microM Y-27632 dihydrochloride (Tocris Bioscience, Bristol, United Kingdom, cat. 1254). The PDCs were cultured in complete DMEM/F12 media without 9.7 microM Y-27632 dihydrochloride for at least two passages prior to the screen. The established cell line HOP-62 was cultured in RPMI 1640 medium, HEPES (Invitrogen, cat. 22400105) with 10% defined fetal bovine serum (HyClone Laboratories Inc., cat. SH30070.03) and 2 mM L-glutamine (Invitrogen, cat. 25030081). The pooled donor HUVEC were cultured in endothelial cell growth medium 2 (PromoCell, Heidelberg, Germany, cat. C-22011) and the hMSC were cultured in mesenchymal stem cell growth medium 2 (PromoCell, cat. C-28009). For all experiments, HUVEC and hMSC were used at passages </=5, while the malignant cell lines were used at passages </=15. […]

[1] = second compound 0.1 µM, first compound 0.000316 µM
[2] = second compound 0.1 µM, first compound 0.001 µM
[3] = second compound 0.1 µM, first compound 0.00316 µM
[4] = second compound 0.1 µM, first compound 0.01 µM
[5] = second compound 0.1 µM, first compound 0.0316 µM
[6] = second compound 0.1 µM, first compound 0.1 µM
[7] = second compound 0.316 µM, first compound 0.000316 µM
[8] = second compound 0.316 µM, first compound 0.001 µM
[9] = second compound 0.316 µM, first compound 0.00316 µM
[10] = second compound 0.316 µM, first compound 0.01 µM
[11] = second compound 0.316 µM, first compound 0.0316 µM
[12] = second compound 0.316 µM, first compound 0.1 µM
[13] = second compound 1 µM, first compound 0.000316 µM
[14] = second compound 1 µM, first compound 0.001 µM
[15] = second compound 1 µM, first compound 0.00316 µM
[16] = second compound 1 µM, first compound 0.01 µM
[17] = second compound 1 µM, first compound 0.0316 µM
[18] = second compound 1 µM, first compound 0.1 µM
[19] = second compound 3.16 µM, first compound 0.000316 µM
[20] = second compound 3.16 µM, first compound 0.001 µM
[21] = second compound 3.16 µM, first compound 0.00316 µM
[22] = second compound 3.16 µM, first compound 0.01 µM
[23] = second compound 3.16 µM, first compound 0.0316 µM
[24] = second compound 3.16 µM, first compound 0.1 µM
[25] = second compound 10 µM, first compound 0.000316 µM
[26] = second compound 10 µM, first compound 0.001 µM
[27] = second compound 10 µM, first compound 0.00316 µM
[28] = second compound 10 µM, first compound 0.01 µM
[29] = second compound 10 µM, first compound 0.0316 µM
[30] = second compound 10 µM, first compound 0.1 µM
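Also: spheroids exposed to agents for 7 days before readout.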

CN(C)C/C=C/C(=O)Nc1cc2c(Nc3ccc(F)c(Cl)c3)ncnc2cc1O[C@H]1CCOC1 + COc1cc2nc(C)nc(NC(C)c3cc(N)cc(C(F)(F)F)c3)c2cc1OC1CCOC1
< 7.00: pIC50 (second compound 0.1 µM) | pIC50 (second compound 0.316 µM) | pIC50 (second compound 1 µM) | pIC50 (second compound 3.16 µM) | pIC50 (second compound 10 µM)
inactive: viability, T/C [1] 116% | viability, T/C [2] 103% | viability, T/C [3] 97.1% | viability, T/C [4] 88.9% | viability, T/C [5] 79.6% | viability, T/C [6] 69.2% | viability, T/C [7] 98.7% | viability, T/C [8] 102% | viability, T/C [9] 92.9% | viability, T/C [10] 89% | viability, T/C [11] 67.3% | viability, T/C [12] 66.7% | viability, T/C [13] 96.4% | viability, T/C [14] 120% | viability, T/C [15] 110% | viability, T/C [16] 96% | viability, T/C [17] 79.1% | viability, T/C [18] 73.3% | viability, T/C [19] 88.4% | viability, T/C [20] 102% | viability, T/C [21] 80.3% | viability, T/C [22] 72.5% | viability, T/C [23] 68% | viability, T/C [24] 61.8% | viability, T/C [25] 87.1% | viability, T/C [26] 85.7% | viability, T/C [27] 75.2% | viability, T/C [28] 63.1% | viability, T/C [29] 60% | viability, T/C [30] 61.2%

CN(C)C/C=C/C(=O)Nc1cc2c(Nc3ccc(F)c(Cl)c3)ncnc2cc1O[C@H]1CCOC1 + CC1OCC2(CCN(c3cnc(Sc4ccnc(N)c4Cl)c(N)n3)CC2)C1N
< 7.00: pIC50 (second compound 0.1 µM) | pIC50 (second compound 0.316 µM) | pIC50 (second compound 1 µM) | pIC50 (second compound 3.16 µM) | pIC50 (second compound 10 µM)
inactive: viability, T/C [1] 112% | viability, T/C [2] 105% | viability, T/C [3] 105% | viability, T/C [4] 89.4% | viability, T/C [5] 71.8% | viability, T/C [6] 68% | viability, T/C [7] 103% | viability, T/C [8] 102% | viability, T/C [9] 90.7% | viability, T/C [10] 81.3% | viability, T/C [11] 78.6% | viability, T/C [12] 71.5% | viability, T/C [13] 150% | viability, T/C [14] 144% | viability, T/C [15] 136% | viability, T/C [16] 121% | viability, T/C [17] 105% | viability, T/C [18] 89.2% | viability, T/C [19] 88.1% | viability, T/C [20] 88% | viability, T/C [21] 77.8% | viability, T/C [22] 72.8% | viability, T/C [23] 67.1% | viability, T/C [24] 62.8% | viability, T/C [25] 147% | viability, T/C [26] 149% | viability, T/C [27] 140% | viability, T/C [28] 116% | viability, T/C [29] 104% | viability, T/C [30] 92%

O=C(c1cc(Cc2n[nH]c(=O)c3ccccc23)ccc1F)N1CCN(C(=O)C2CC2)CC1 + CC1OCC2(CCN(c3cnc(Sc4ccnc(N)c4Cl)c(N)n3)CC2)C1N
< 5.00: pIC50 (second compound 0.1 µM) | pIC50 (second compound 0.316 µM) | pIC50 (second compound 1 µM) | pIC50 (second compound 3.16 µM) | pIC50 (second compound 10 µM)
inactive: viability, T/C [5] 111% | viability, T/C [6] 113% | viability, T/C (second compound 0.1 µM, first compound 0.316 µM) 106% | viability, T/C (second compound 0.1 µM, first compound 1 µM) 104% | viability, T/C (second compound 0.1 µM, first compound 3.16 µM) 100% | viability, T/C (second compound 0.1 µM, first compound 10 µM) 95.8% | viability, T/C [11] 103% | viability, T/C [12] 109% | viability, T/C (second compound 0.316 µM, first compound 0.316 µM) 104% | viability, T/C (second compound 0.316 µM, first compound 1 µM) 103% | viability, T/C (second compound 0.316 µM, first compound 3.16 µM) 104% | viability, T/C (second compound 0.316 µM, first compound 10 µM) 89.6% | viability, T/C [17] 145% | viability, T/C [18] 149% | viability, T/C (second compound 1 µM, first compound 0.316 µM) 143% | viability, T/C (second compound 1 µM, first compound 1 µM) 137% | viability, T/C (second compound 1 µM, first compound 3.16 µM) 118% | viability, T/C (second compound 1 µM, first compound 10 µM) 104% | viability, T/C [23] 81% | viability, T/C [24] 90.4% | viability, T/C (second compound 3.16 µM, first compound 0.316 µM) 85.1% | viability, T/C (second compound 3.16 µM, first compound 1 µM) 86% | viability, T/C (second compound 3.16 µM, first compound 3.16 µM) 78.9% | viability, T/C (second compound 3.16 µM, first compound 10 µM) 77.6% | viability, T/C [29] 78.3% | viability, T/C [30] 87.4% | viability, T/C (second compound 10 µM, first compound 0.316 µM) 132% | viability, T/C (second compound 10 µM, first compound 1 µM) 81% | viability, T/C (second compound 10 µM, first compound 3.16 µM) 70.7% | viability, T/C (second compound 10 µM, first compound 10 µM) 67.1%

CC(=O)Nc1cccc(-n2c(=O)n(C3CC3)c(=O)c3c(Nc4ccc(I)cc4F)n(C)c(=O)c(C)c32)c1 + C=CC(=O)N1CCN(c2nc(=O)n(-c3c(C)ccnc3C(C)C)c3nc(-c4c(O)cccc4F)c(F)cc23)C(C)C1
8.70: pIC50 (second compound 1 µM)
9.48: pIC50 (second compound 10 µM)
8.76: pIC50 (second compound 0.1 µM)
inactive: viability, T/C (second compound 0.1 µM, first compound 0.0001 µM) 102% | viability, T/C [1] 81.2% | viability, T/C [2] 55.9% | viability, T/C [3] 42.2% | viability, T/C [4] 30% | viability, T/C [5] 21.3% | viability, T/C (second compound 0.316 µM, first compound 0.0001 µM) 114% | viability, T/C [7] 83% | viability, T/C [8] 54.6% | viability, T/C [9] 40.1% | viability, T/C [10] 30.6% | viability, T/C [11] 21.4% | viability, T/C (second compound 1 µM, first compound 0.0001 µM) 92.5% | viability, T/C [13] 84.3% | viability, T/C [14] 61.2% | viability, T/C [15] 41.7% | viability, T/C [16] 31.9% | viability, T/C [17] 23.8% | viability, T/C (second compound 3.16 µM, first compound 0.0001 µM) 84.6% | viability, T/C [19] 81.5% | viability, T/C [20] 52.4% | viability, T/C [21] 38.7% | viability, T/C [22] 30.1% | viability, T/C [23] 26.6% | viability, T/C (second compound 10 µM, first compound 0.0001 µM) 61.6% | viability, T/C [25] 51.3% | viability, T/C [26] 29.3% | viability, T/C [27] 26.4% | viability, T/C [28] 23.2% | viability, T/C [29] 18.6%
8.87: pIC50 (second compound 3.16 µM)
8.80: pIC50 (second compound 0.316 µM)
